Experimental data as given in ChEMBL document CHEMBL5528064, “Invention of MK-7845, a SARS-CoV-2 3CL Protease Inhibitor Employing a Novel Difluorinated Glutamine Mimic” (J Med Chem, 2024).

How the values were obtained:
[1] = test system: SARS-CoV-2; test: Antiviral activity against replicon RNA harboring SARS-CoV-2 infected in human A549 cells assessed as inhibition of viral growth measured 40 hrs post treatment; type: functional, organism-based; settings: Severe acute respiratory syndrome coronavirus 2, A549, 40 h
[2] = test system: SARS-CoV-2; test: Antiviral activity against SARS-CoV-2 Omicron B.1.1.529 harboring 3CLpro R346K mutant infected in human A549-hACE2-TMPRSS2 cells assessed as inhibition of virus induced cytopathic effect incubated for 72 hrs by celltiter glo assay; type: functional, organism-based, Severe acute respiratory syndrome coronavirus 2
[3] = Inhibition of SARS-CoV-2 Omicron 3CLpro P132H mutant expressed in Escherichia coli (DE3) competent cells using CP488-ESATLQSGLRKAK-(CPQ2)-NH2 as substrate preincubated for 30 mins followed by substrate addition and measured after 4 hrs by FRET assay; parameters: species or system Severe acute respiratory syndrome coronavirus 2
[4] = test system: SARS-CoV-2; test: Antiviral activity against replicon RNA harboring SARS-CoV-2 infected in human A549 cells assessed as inhibition of viral growth; type: functional, organism-based; settings: Severe acute respiratory syndrome coronavirus 2, A549

| SMILES | IC50 [1] | further results |
| --- | --- | --- |
| COC(=O)N[C@H](C(=O)N1CCC2(CC2)C[C@H]1C(=O)N[C@@H](CCC(C)(F)F)C(=O)C(=O)NC1CC1)C(C)(C)C | 20 nM |  |
| COC(=O)N[C@H](C(=O)N1C[C@@H]2CCC[C@@H]2[C@H]1C(=O)N[C@@H](CCC(C)(F)F)C(=O)C(=O)NC1CC1)C(C)(C)C | 18 nM |  |
| COC(=O)N[C@H](C(=O)N1CC2(C[C@H]1C(=O)N[C@@H](CCC(C)(F)F)C(=O)C(=O)NC1CC1)CC2(F)F)C(C)(C)C (stereo not given in full) | 33 nM |  |
| COC(=O)N[C@H](C(=O)N1CC[C@@H](C(F)(F)F)C[C@H]1C(=O)N[C@@H](CCC(C)(F)F)C(=O)C(=O)NC1CC1)C(C)(C)C | 19 nM |  |
| CNC(=O)C(=O)[C@H](CCC(C)(F)F)NC(=O)[C@@H]1C[C@H](C(F)(F)F)CCN1C(=O)[C@@H](NC(=O)OC)C(C)(C)C | 12 nM |  |
| CNC(=O)C(=O)[C@H](CCC(C)(F)F)NC(=O)[C@@H]1[C@H]2CCC[C@H]2CN1C(=O)[C@@H](NC(=O)OC)C(C)(C)C | 15 nM | IC50 [2]: 215 nM; IC50 [3]: 15 nM |
| COC(=O)N[C@H](C(=O)N1C[C@H]2[C@@H]([C@H]1C(=O)N[C@@H](CCC(C)(F)F)C(=O)C(=O)NC1CC1)C21CCOCC1)C(C)(C)C | 32 nM |  |
| CC(C)(C)NC(=O)N[C@H](C(=O)N1C[C@H]2[C@@H]([C@H]1C(=O)N[C@@H](C[C@@H]1CCNC1=O)C(=O)C(N)=O)C2(C)C)C(C)(C)C |  | IC50 [4]: 7500 nM |
